The test system of this experiment is CD2F1 mice, L1210 leukemia ip, survival T/C. The experiment is described as follows: NCI In Vivo Anticancer Drug Screen. Data for tumor model L1210 Leukemia (intraperitoneal) in CD2F1 (CDF1) mice. To be noted: higher = longer survival. An outline of the steps: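 Each value reflects a quotient of treated over vehicle control outcomes in mice with a transplanted tumor.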

Where [1] appears, read: endpoint: mean survival time, dose: 25.0 mg/kg/injection, schedule: Q01DX009 (ip), vehicle: water.
Setting [2] is: endpoint: mean survival time, dose: 50.0 mg/kg/injection, schedule: Q01DX009 (ip), vehicle: water.
[3] abbreviates: endpoint: mean survival time, dose: 25.0 mg/kg/injection, schedule: Q01DX009 (ip), vehicle: Klucel (hydroxypropylcellulose) (HPC).
The mark [4] stands for this setting: endpoint: mean survival time, dose: 50.0 mg/kg/injection, schedule: Q01DX009 (ip), vehicle: Klucel (hydroxypropylcellulose) (HPC).
Setting [5] is: endpoint: mean survival time, dose: 100.0 mg/kg/injection, schedule: Q01DX009 (ip), vehicle: saline with Tween-80.
The mark [6] stands for this setting: endpoint: mean survival time, dose: 200.0 mg/kg/injection, schedule: Q01DX009 (ip), vehicle: saline with Tween-80.
The mark [7] stands for this setting: endpoint: mean survival time, dose: 400.0 mg/kg/injection, schedule: Q01DX009 (ip), vehicle: saline with Tween-80.
Setting [8] is: endpoint: mean survival time, dose: 100.0 mg/kg/injection, schedule: Q04DX003 (ip), vehicle: saline with Tween-80.
Where [9] appears, read: endpoint: mean survival time, dose: 200.0 mg/kg/injection, schedule: Q04DX003 (ip), vehicle: saline with Tween-80.

Several values for one entry are separate records, joined by “and”; a condition that tells them apart may be missing. Identical values can stand only once. Toxic doses and inconclusive results are not listed.

Consider `CC(C)NC1=C(NC(=O)NC(=O)c2ccccc2)C(=O)c2ccccc2C1=O`, for which the T/C runs as follows: (endpoint: mean survival time, dose: 100.0 mg/kg/injection, schedule: Q01DX001 (ip), vehicle: other) 100 % of control; (endpoint: mean survival time, dose: 200.0 mg/kg/injection, schedule: Q01DX001 (ip), vehicle: other) 103 % of control; (endpoint: mean survival time, dose: 400.0 mg/kg/injection, schedule: Q01DX001 (ip), vehicle: other) 106 % of control.

On to `Cn1cnc([N+](=O)[O-])c1[Se]c1nc(N)nc2nc[nH]c12`, for which the T/C is 111 % of control (endpoint: mean survival time, dose: 3.12 mg/kg/injection, schedule: Q01DX009 (ip), vehicle: water); 124 % of control (endpoint: mean survival time, dose: 6.25 mg/kg/injection, schedule: Q01DX009 (ip), vehicle: water); 121 % of control (endpoint: mean survival time, dose: 7.3 mg/kg/injection, schedule: Q01DX005 (ip), vehicle: water); 153 % of control (endpoint: mean survival time, dose: 25.0 mg/kg/injection, schedule: Q01DX005 (ip), vehicle: water); 160 % of control under setting [1]; 178 % of control (endpoint: mean survival time, dose: 37.5 mg/kg/injection, schedule: Q01DX005 (ip), vehicle: water). For the same molecule, the T/C under setting [2] was 151 % of control.

As for `CCOC(=O)C1C(=O)N(C)C(=O)N1C` (stereo unspecified), the T/C (endpoint: mean survival time, dose: 5.56 mg/kg/injection, schedule: Q01DX009 (ip), vehicle: water) is 89 % of control; the T/C (endpoint: mean survival time, dose: 8.33 mg/kg/injection, schedule: Q01DX009 (ip), vehicle: water) is 90 % of control; the T/C (endpoint: mean survival time, dose: 12.5 mg/kg/injection, schedule: Q01DX009 (ip), vehicle: water) was 121 % of control and 92 % of control; the T/C under setting [1] is 95 % of control; the T/C under setting [2] was 93 % of control; the T/C (endpoint: mean survival time, dose: 100.0 mg/kg/injection, schedule: Q01DX009 (ip), vehicle: water) was 95 % of control. For the same molecule, for the setting “endpoint: mean survival time, dose: 200.0 mg/kg/injection, schedule: Q01DX009 (ip), vehicle: water”, the T/C is 98 % of control.

On to `CCOC(=O)C12CCCCC1=CC1(CC2)SCCS1` (stereo unspecified), for which the T/C is 93 % of control (endpoint: mean survival time, dose: 100.0 mg/kg/injection, schedule: Q04DX003 (ip), vehicle: acetone); 91 % of control (endpoint: mean survival time, dose: 200.0 mg/kg/injection, schedule: Q04DX003 (ip), vehicle: acetone); 86 % of control (endpoint: mean survival time, dose: 400.0 mg/kg/injection, schedule: Q04DX003 (ip), vehicle: acetone).

For the molecule `COc1cccc(C(O)c2ccncc2C)c1OC` (stereo unspecified), the T/C under setting [3] is 97 % of control; the T/C under setting [4] is 97 % of control; the T/C (endpoint: mean survival time, dose: 100.0 mg/kg/injection, schedule: Q01DX009 (ip), vehicle: Klucel (hydroxypropylcellulose) (HPC)) is 95 % of control; the T/C (endpoint: mean survival time, dose: 200.0 mg/kg/injection, schedule: Q01DX009 (ip), vehicle: Klucel (hydroxypropylcellulose) (HPC)) is 98 % of control.

`C=C(C)c1c2ccccc2cc2cccc(Sc3ccccc3)c12`: the T/C was 95 % of control under setting [5], 93 % of control under setting [6] and 95 % of control under setting [7].

Take `N#CC1C2CCC(O2)C1C(=O)Oc1ccccc1` (stereo unspecified): the T/C runs as follows: (endpoint: mean survival time, dose: 25.0 mg/kg/injection, schedule: Q04DX002 (ip), vehicle: saline with Tween-80) 103 % of control; (endpoint: mean survival time, dose: 50.0 mg/kg/injection, schedule: Q04DX002 (ip), vehicle: saline with Tween-80) 95 % of control; (endpoint: mean survival time, dose: 100.0 mg/kg/injection, schedule: Q04DX002 (ip), vehicle: saline with Tween-80) 97 % of control and 110 % of control.

With `CCNc1ncc2ccccc2c1-c1ccc(NCCCl)cc1`, the T/C was 98 % of control (endpoint: mean survival time, dose: 25.0 mg/kg/injection, schedule: Q04DX003 (ip), vehicle: other); 95 % of control (endpoint: mean survival time, dose: 50.0 mg/kg/injection, schedule: Q04DX003 (ip), vehicle: other); 87 % of control (endpoint: mean survival time, dose: 100.0 mg/kg/injection, schedule: Q04DX003 (ip), vehicle: other); 105 % of control (endpoint: mean survival time, dose: 200.0 mg/kg/injection, schedule: Q04DX003 (ip), vehicle: other); 90 % of control (endpoint: mean survival time, dose: 400.0 mg/kg/injection, schedule: Q04DX003 (ip), vehicle: other).

In the case of `CCOc1ccc([NH-])c([NH-])c1.[Cl][Pt+2][Cl]`, the T/C reads like this: (endpoint: mean survival time, dose: 2.5 mg/kg/injection, schedule: Q01DX009 (ip), vehicle: distilled water + Tween-80) 100 % of control; (endpoint: mean survival time, dose: 5.0 mg/kg/injection, schedule: Q01DX009 (ip), vehicle: distilled water + Tween-80) 107 % of control; (endpoint: mean survival time, dose: 10.0 mg/kg/injection, schedule: Q01DX009 (ip), vehicle: distilled water + Tween-80) 91 % of control.

Turning to `S=C(S)NCCc1ccccn1`, the T/C under setting [5] is 102 % of control, the T/C under setting [6] was 94 % of control and the T/C under setting [7] was 103 % of control.

Turning to `COc1cc(Cl)ccc1NC(=O)OCCOc1cc(OC)c(Cl)c(OC)c1`, the T/C by setting is: under setting [5], 101 % of control; under setting [6], 103 % of control; under setting [7], 101 % of control.

For `CCCC[P+](CCCC)(CCCC)Cc1ccc([N+](=O)[O-])cc1`, the T/C is, setting by setting: (endpoint: mean survival time, dose: 12.5 mg/kg/injection, schedule: Q01DX009 (ip), vehicle: Klucel (hydroxypropylcellulose) (HPC)) 104 % of control; under setting [3], 96 % of control; (endpoint: mean survival time, dose: 25.0 mg/kg/injection, schedule: Q04DX003 (ip), vehicle: Klucel (hydroxypropylcellulose) (HPC)) 94 % of control; (endpoint: mean survival time, dose: 50.0 mg/kg/injection, schedule: Q01DX001 (ip), vehicle: Klucel (hydroxypropylcellulose) (HPC)) 96 % of control; under setting [4], 115 % of control; (endpoint: mean survival time, dose: 50.0 mg/kg/injection, schedule: Q04DX002 (ip), vehicle: Klucel (hydroxypropylcellulose) (HPC)) 96 % of control. Moreover, for the setting “endpoint: mean survival time, dose: 50.0 mg/kg/injection, schedule: Q04DX003 (ip), vehicle: Klucel (hydroxypropylcellulose) (HPC)”, the T/C is 94 % of control.

Turning to `O=C(/C=C/c1ccco1)c1cccnc1`, the T/C is 94 % of control (endpoint: mean survival time, dose: 100.0 mg/kg/injection, schedule: Q01DX001 (ip), vehicle: saline); 100 % of control (endpoint: mean survival time, dose: 200.0 mg/kg/injection, schedule: Q01DX001 (ip), vehicle: saline); 100 % of control (endpoint: mean survival time, dose: 400.0 mg/kg/injection, schedule: Q01DX001 (ip), vehicle: saline).

In the case of `CCS(=O)(=O)OC1CCCCCCC1NC(=O)c1ccccc1` (stereo unspecified), the T/C is 100 % of control (endpoint: mean survival time, dose: 50.0 mg/kg/injection, schedule: Q01DX009 (ip), vehicle: saline with Tween-80); 97 % of control under setting [5]; 104 % of control under setting [8]; 98 % of control under setting [9].

For the molecule `C=C(C)C12CC(COC(=O)c3ccccc3)C34OC5(OC1C3C1OC1(CO)C(O)C1(O)C(OC(=O)c3ccccc3)C(C)C(C(C)CCCCCCC5O)C14)O2` (stereo unspecified), the T/C (endpoint: mean survival time, dose: 1.5 micrograms/kg/injection, schedule: Q01DX009 (ip), vehicle: saline) is 103 % of control; the T/C (endpoint: mean survival time, dose: 3.1 micrograms/kg/injection, schedule: Q01DX009 (ip), vehicle: saline) is 98 % of control; the T/C (endpoint: mean survival time, dose: 6.2 micrograms/kg/injection, schedule: Q01DX009 (ip), vehicle: saline) is 97 % of control; the T/C (endpoint: mean survival time, dose: 12.5 micrograms/kg/injection, schedule: Q01DX009 (ip), vehicle: saline) was 98 % of control.

Consider `CCC[CH2][Sn]1([CH2]CCC)[O]CC2OC(n3cc(C)c(=O)[nH]c3=O)CC2[O]1` (stereo unspecified), for which the T/C reads like this: (endpoint: mean survival time, dose: 0.78 mg/kg/injection, schedule: Q01DX005 (ip), vehicle: other) 97 % of control; (endpoint: mean survival time, dose: 1.56 mg/kg/injection, schedule: Q01DX005 (ip), vehicle: other) 101 % of control; (endpoint: mean survival time, dose: 3.13 mg/kg/injection, schedule: Q01DX005 (ip), vehicle: other) 106 % of control.

In the case of `CCCCCCC(=O)CC(SCC)c1ccccc1Cl` (stereo unspecified), the T/C (endpoint: median survival time, dose: 25.0 mg/kg/injection, schedule: Q01DX009 (ip), vehicle: saline with Tween-80) was 100 % of control; the T/C (endpoint: median survival time, dose: 50.0 mg/kg/injection, schedule: Q01DX009 (ip), vehicle: saline with Tween-80) is 104 % of control; the T/C (endpoint: median survival time, dose: 100.0 mg/kg/injection, schedule: Q01DX009 (ip), vehicle: saline with Tween-80) was 100 % of control; the T/C (endpoint: median survival time, dose: 200.0 mg/kg/injection, schedule: Q01DX009 (ip), vehicle: saline with Tween-80) was 97 % of control; the T/C (endpoint: median survival time, dose: 400.0 mg/kg/injection, schedule: Q01DX009 (ip), vehicle: saline with Tween-80) was 98 % of control.

Take `Nc1ccc(NC(=O)Nc2ccccc2)cc1`: the T/C was 88 % of control (endpoint: mean survival time, dose: 100.0 mg/kg/injection, schedule: Q01DX001 (ip), vehicle: Klucel (hydroxypropylcellulose) (HPC)); 96 % of control (endpoint: mean survival time, dose: 200.0 mg/kg/injection, schedule: Q01DX001 (ip), vehicle: Klucel (hydroxypropylcellulose) (HPC)); 96 % of control (endpoint: mean survival time, dose: 400.0 mg/kg/injection, schedule: Q01DX001 (ip), vehicle: Klucel (hydroxypropylcellulose) (HPC)).

`O=C(/C=C/c1ccccc1)N1CCCCC1`: the T/C is, setting by setting: under setting [8], 98 % of control; under setting [9], 89 % of control; (endpoint: mean survival time, dose: 400.0 mg/kg/injection, schedule: Q04DX003 (ip), vehicle: saline with Tween-80) 94 % of control.

Source of the values: PubChem BioAssay AID256 (DTP/NCI, 2004).
